Assays:
ECC4 = assay: cells; type: functional, cell-based; details: Homo sapiens;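 further: growth inhibition of ECC4 cells, read out with a cell viability assay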
Description: SANGER: Inhibition of human ECC4 cell growth in a cell viability assay.

GDM-1 = assay: cells; type: functional, cell-based; details: Homo sapiens;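 further: cell viability readout used to measure growth inhibition of human GDM-1 cells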
Description: SANGER: Inhibition of human GDM-1 cell growth in a cell viability assay.

CAL-39 = assay: cells; type: functional, cell-based, Homo sapiens; details: Homo sapiens, CAL-39;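 further: cell viability assay measuring growth inhibition of CAL-39 cells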
Description: SANGER: Inhibition of human CAL-39 cell growth in a cell viability assay.

MONO-MAC-6 = assay: cells; type: functional, cell-based; details: Homo sapiens;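 further: cell viability assay measuring growth inhibition of human MONO-MAC-6 cells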
Description: SANGER: Inhibition of human MONO-MAC-6 cell growth in a cell viability assay.

HCC70 = assay: cells; type: functional, cell-based, Homo sapiens; details: Homo sapiens, HCC70;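 further: cell viability assay measuring how strongly the compound suppresses proliferation of HCC70 cells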
Description: SANGER: Inhibition of human HCC70 cell growth in a cell viability assay.

OS-RC-2 = assay: cells; type: functional, cell-based, Homo sapiens; details: Homo sapiens, OS-RC-2;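 further: growth inhibition of human OS-RC-2 cells, measured by a cell viability assay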
Description: SANGER: Inhibition of human OS-RC-2 cell growth in a cell viability assay.

NCI-H460 = assay: cells; type: functional, cell-based, Homo sapiens; details: Homo sapiens, NCI-H460;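 further: cell viability assay scoring growth inhibition of human NCI-H460 cells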
Description: SANGER: Inhibition of human NCI-H460 cell growth in a cell viability assay.

8-MG-BA = assay: cells; type: functional, cell-based, Homo sapiens; details: Homo sapiens, 8-MG-BA;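 further: growth inhibition of 8-MG-BA cells, read out with a cell viability assay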
Description: SANGER: Inhibition of human 8-MG-BA cell growth in a cell viability assay.

NCI-H524 = assay: cells; type: functional, cell-based; details: Homo sapiens;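 further: growth inhibition of human NCI-H524 cells, read out through a cell viability assay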
Description: SANGER: Inhibition of human NCI-H524 cell growth in a cell viability assay.

SK-OV-3 = assay: cells; type: functional, cell-based, Homo sapiens; details: Homo sapiens, SK-OV-3;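 further: growth inhibition of SK-OV-3 human cells, read out with a cell viability assay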
Description: SANGER: Inhibition of human SK-OV-3 cell growth in a cell viability assay.

NALM-6 = assay: cells; type: functional, cell-based; details: Homo sapiens;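 further: growth inhibition of NALM-6 cells, read out with a cell viability assay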
Description: SANGER: Inhibition of human NALM-6 cell growth in a cell viability assay.

LU-165 = assay: cells; type: functional, cell-based; details: Homo sapiens
Description: SANGER: Inhibition of human LU-165 cell growth in a cell viability assay.

KARPAS-299 = assay: cells; type: functional, cell-based; details: Homo sapiens
Description: SANGER: Inhibition of human KARPAS-299 cell growth in a cell viability assay.

K5 = assay: cells; type: functional, cell-based, Homo sapiens; details: Homo sapiens, K5
Description: SANGER: Inhibition of human K5 cell growth in a cell viability assay.

C8166 = assay: cells; type: functional, cell-based; details: Homo sapiens;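 further: growth inhibition of human C8166 cells measured by a cell viability assay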
Description: SANGER: Inhibition of human C8166 cell growth in a cell viability assay.

NCI-H2141 = assay: cells; type: functional, cell-based; details: Homo sapiens;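 further: growth inhibition of human NCI-H2141 cells, read out with a cell viability assay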
Description: SANGER: Inhibition of human NCI-H2141 cell growth in a cell viability assay.

COLO-679 = assay: cells; type: functional, cell-based, Homo sapiens; details: Homo sapiens, COLO-679
Description: SANGER: Inhibition of human COLO-679 cell growth in a cell viability assay.

NCI-H2227 = assay: cells; type: functional, cell-based; details: Homo sapiens;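 further: growth inhibition of the human cell line, read out with a cell viability assay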
Description: SANGER: Inhibition of human NCI-H2227 cell growth in a cell viability assay.

RL = assay: cells; type: functional, cell-based; details: Homo sapiens
Description: SANGER: Inhibition of human RL cell growth in a cell viability assay.

EFO-21 = assay: cells; type: functional, cell-based, Homo sapiens; details: Homo sapiens, EFO-21;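 further: growth inhibition of EFO-21 cells measured with a viability assay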
Description: SANGER: Inhibition of human EFO-21 cell growth in a cell viability assay.

Raji = assay: cells; type: functional, cell-based; details: Homo sapiens;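 further: cell viability assay measuring inhibition of Raji cell growth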
Description: SANGER: Inhibition of human Raji cell growth in a cell viability assay.

NCI-H187 = assay: cells; type: functional, cell-based; details: Homo sapiens;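 further: growth inhibition of NCI-H187 cells, read out as cell viability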
Description: SANGER: Inhibition of human NCI-H187 cell growth in a cell viability assay.

K052 = assay: cells; type: functional, cell-based; details: Homo sapiens;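 further: Read-out from a cell viability assay, IC50 reflecting suppression of K052 cell growth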
Description: SANGER: Inhibition of human K052 cell growth in a cell viability assay.

NCI-H2030 = assay: cells; type: functional, cell-based, Homo sapiens; details: Homo sapiens, NCI-H2030;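 further: growth inhibition of human NCI-H2030 cells, read out by a cell viability assay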
Description: SANGER: Inhibition of human NCI-H2030 cell growth in a cell viability assay.

NCI-H345 = assay: cells; type: functional, cell-based; details: Homo sapiens;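 further: growth inhibition of NCI-H345 cells measured with a cell viability assay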
Description: SANGER: Inhibition of human NCI-H345 cell growth in a cell viability assay.

SK-N-AS = assay: cells; type: functional, cell-based, Homo sapiens; details: Homo sapiens, SK-N-AS;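 further: growth inhibition of human SK-N-AS cells, measured with a cell viability assay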
Description: SANGER: Inhibition of human SK-N-AS cell growth in a cell viability assay.

WSU-NHL = assay: cells; type: functional, cell-based; details: Homo sapiens;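 further: growth inhibition of human WSU-NHL cells, read out with a cell viability assay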
Description: SANGER: Inhibition of human WSU-NHL cell growth in a cell viability assay.

BC-3 = assay: cells; type: functional, cell-based; details: Homo sapiens;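 further: cell viability assay measuring growth inhibition of human BC-3 cells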
Description: SANGER: Inhibition of human BC-3 cell growth in a cell viability assay.

NCI-H716 = assay: cells; type: functional, cell-based; details: Homo sapiens;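 further: growth inhibition of human NCI-H716 cells, measured by a cell viability assay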
Description: SANGER: Inhibition of human NCI-H716 cell growth in a cell viability assay.

KYSE-70 cell line = assay: cells; type: functional, cell-based, Homo sapiens; details: Homo sapiens, KYSE-70;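 further: cell viability assay read-out, with IC50 expressing suppression of KYSE-70 cell growth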
Description: SANGER: Inhibition of human KYSE-70 cell growth in a cell viability assay.

YT = assay: cells; type: functional, cell-based; details: Homo sapiens
Description: SANGER: Inhibition of human YT cell growth in a cell viability assay.

MEL-JUSO = assay: cells; type: functional, cell-based, Homo sapiens; details: Homo sapiens, MEL-JUSO;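 further: growth inhibition of human MEL-JUSO cells, read out with a cell viability assay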
Description: SANGER: Inhibition of human MEL-JUSO cell growth in a cell viability assay.

NCI-H28 = assay: cells; type: functional, cell-based, Homo sapiens; details: Homo sapiens, NCI-H28;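 further: growth inhibition of human NCI-H28 cells, read out as cell viability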
Description: SANGER: Inhibition of human NCI-H28 cell growth in a cell viability assay.

BEN = assay: cells; type: functional, cell-based, Homo sapiens; details: Homo sapiens, BEN;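 further: growth inhibition of the BEN cell line, read out with a cell viability assay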
Description: SANGER: Inhibition of human BEN cell growth in a cell viability assay.

SK-MM-2 = assay: cells; type: functional, cell-based; details: Homo sapiens;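 further: growth inhibition of human SK-MM-2 cells, read out with a cell viability assay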
Description: SANGER: Inhibition of human SK-MM-2 cell growth in a cell viability assay.

SNU-C1 = assay: cells; type: functional, cell-based; details: Homo sapiens;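 further: growth inhibition of SNU-C1 human cells, read out by a cell viability assay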
Description: SANGER: Inhibition of human SNU-C1 cell growth in a cell viability assay.

THP-1 = assay: cells; type: functional, cell-based; details: Homo sapiens;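 further: growth inhibition of THP-1 cells, read out via a cell viability assay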
Description: SANGER: Inhibition of human THP-1 cell growth in a cell viability assay.

CAS-1 = assay: cells; type: functional, cell-based, Homo sapiens; details: Homo sapiens, CAS-1;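 further: growth inhibition of CAS-1 cells, measured with a cell viability assay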
Description: SANGER: Inhibition of human CAS-1 cell growth in a cell viability assay.

P31-FUJ = assay: cells; type: functional, cell-based; details: Homo sapiens;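 further: growth inhibition of P31-FUJ cells, read out with a viability assay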
Description: SANGER: Inhibition of human P31-FUJ cell growth in a cell viability assay.

MHH-CALL-2 = assay: cells; type: functional, cell-based; details: Homo sapiens;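 further: growth inhibition of the cell line, read out in a cell viability assay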
Description: SANGER: Inhibition of human MHH-CALL-2 cell growth in a cell viability assay.

CESS = assay: SANGER: Inhibition of human CESS cell growth in a cell viability assay.; type: functional, cell-based
MDA-MB-361 = assay: cells; type: functional, cell-based, Homo sapiens; details: Homo sapiens, MDA-MB-361
U-698-M = assay: cells; type: functional, cell-based; details: Homo sapiens
Description: SANGER: Inhibition of human U-698-M cell growth in a cell viability assay.

MKN-28 = assay: cells; type: functional, cell-based, Homo sapiens; details: Homo sapiens, MKN-28;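 further: cell viability assay read-out, IC50 reflects suppression of growth of human MKN-28 cells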
Description: SANGER: Inhibition of human MKN28 cell growth in a cell viability assay.

NCI-H1963 = assay: cells; type: functional, cell-based; details: Homo sapiens;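 further: cell growth inhibition of the human line, determined with a cell viability assay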
Description: SANGER: Inhibition of human NCI-H1963 cell growth in a cell viability assay.

KGN = assay: cells; type: functional, cell-based, Homo sapiens; details: Homo sapiens, KGN;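 further: growth inhibition of KGN cells, read out with a cell viability assay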
Description: SANGER: Inhibition of human KGN cell growth in a cell viability assay.

REH = assay: cells; type: functional, cell-based; details: Homo sapiens;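 further: growth inhibition of REH cells determined with a cell viability read-out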
Description: SANGER: Inhibition of human REH cell growth in a cell viability assay.

OPM-2 = assay: cells; type: functional, cell-based; details: Homo sapiens;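 further: growth of OPM-2 cells measured with a viability assay, IC50 for suppression of proliferation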
Description: SANGER: Inhibition of human OPM-2 cell growth in a cell viability assay.

IM-9 = assay: SANGER: Inhibition of human IM-9 cell growth in a cell viability assay.; type: functional, cell-based

COC(=O)CNC(=O)C(=O)OC
IC50 (ECC4): 3.58 mM
IC50 (GDM-1): 121 µM
IC50 (CAL-39): 19.3 µM
IC50 (MONO-MAC-6): 202 µM
IC50 (HCC70): 306 µM
IC50 (OS-RC-2): 1750 µM
IC50 (NCI-H460): 159 µM
IC50 (8-MG-BA): 126 µM
IC50 (NCI-H524): 2.76 mM
IC50 (SK-OV-3): 798 µM
IC50 (NALM-6): 85 µM
IC50 (LU-165): 804 µM
IC50 (KARPAS-299): 98 µM
IC50 (K5): 160 µM
IC50 (C8166): 1040 µM
IC50 (NCI-H2141): 351 µM
IC50 (COLO-679): 157 µM
IC50 (NCI-H2227): 3.06 mM
IC50 (RL): 601 µM
IC50 (EFO-21): 260 µM
IC50 (Raji): 609 µM
IC50 (NCI-H187): 595 µM
IC50 (K052): 171 µM
IC50 (NCI-H2030): 105 µM
IC50 (NCI-H345): 648 µM
IC50 (SK-N-AS): 971 µM
IC50 (WSU-NHL): > 4000 µM
IC50 (BC-3): 305 µM
IC50 (NCI-H716): 1.74 mM
IC50 (KYSE-70 cell line): 551 µM
IC50 (YT): 23.4 µM
IC50 (MEL-JUSO): 275 µM
IC50 (NCI-H28): 1.35 mM
IC50 (BEN): 36.8 µM
IC50 (SK-MM-2): 101 µM
IC50 (SNU-C1): 2.1 mM
IC50 (THP-1): > 4 mM
IC50 (CAS-1): 264 µM
IC50 (P31-FUJ): > 4 mM
IC50 (MHH-CALL-2): 173 µM
IC50 (CESS): 60.8 µM
IC50 (MDA-MB-361): 1.69 mM
IC50 (U-698-M): 13.3 µM
IC50 (MKN-28): 1120 µM
IC50 (NCI-H1963): 1030 µM
IC50 (KGN): 62.8 µM
IC50 (REH): 308 µM
IC50 (OPM-2): 28.8 µM
IC50 (IM-9): > 4 mM

COc1cc([C@@H]2c3cc4c(cc3[C@@H](O[C@@H]3O[C@@H]5CO[C@@H](C)O[C@H]5[C@H](O)[C@H]3O)[C@H]3COC(=O)[C@H]23)OCO4)cc(OC)c1O [ETOPOSIDE]
IC50 (ECC4): > 0.016 mM
IC50 (GDM-1): 3.4 µM
IC50 (CAL-39): 4.64 µM
IC50 (MONO-MAC-6): 12.1 µM
IC50 (HCC70): > 16 µM
IC50 (OS-RC-2): 11.2 µM
IC50 (NCI-H460): 0.236 µM
IC50 (8-MG-BA): 0.0469 µM
IC50 (NCI-H524): > 0.016 mM
IC50 (SK-OV-3): 10.8 µM
IC50 (NALM-6): 0.206 µM
IC50 (LU-165): > 16 µM
IC50 (KARPAS-299): > 16 µM
IC50 (K5): > 16 µM
IC50 (C8166): 1.68 µM
IC50 (NCI-H2141): 8.52 µM
IC50 (COLO-679): 0.163 µM
IC50 (NCI-H2227): > 0.016 mM
IC50 (RL): > 16 µM
IC50 (EFO-21): 11.9 µM
IC50 (Raji): 8.32 µM
IC50 (NCI-H187): 0.674 µM
IC50 (K052): > 16 µM
IC50 (NCI-H2030): 0.23 µM
IC50 (NCI-H345): > 16 µM
IC50 (SK-N-AS): > 16 µM
IC50 (WSU-NHL): 4.36 µM
IC50 (BC-3): 2.48 µM
IC50 (NCI-H716): > 0.016 mM
IC50 (KYSE-70 cell line): > 16 µM
IC50 (YT): > 16 µM
IC50 (MEL-JUSO): 0.657 µM
IC50 (NCI-H28): > 0.016 mM
IC50 (BEN): > 16 µM
IC50 (SK-MM-2): 9.68 µM
IC50 (SNU-C1): > 0.016 mM
IC50 (THP-1): > 0.016 mM
IC50 (CAS-1): > 16 µM
IC50 (P31-FUJ): > 0.016 mM
IC50 (MHH-CALL-2): > 16 µM
IC50 (CESS): 0.384 µM
IC50 (MDA-MB-361): > 0.016 mM
IC50 (U-698-M): 12.5 µM
IC50 (MKN-28): 2.55 µM
IC50 (NCI-H1963): 12.1 µM
IC50 (KGN): 0.352 µM
IC50 (REH): 0.224 µM
IC50 (OPM-2): > 16 µM
IC50 (IM-9): > 0.016 mM

From ChEMBL document CHEMBL1201861, “Genomics of Drug Sensitity in Cancer screening data, Wellcome Trust Sanger Institute”
